Key:
hCA IX [1] = molecular target: T1, hCA IX (Homo sapiens, UniProt Q16790); assay: stopped-flow CO2 hydrase assay; format: biochemical
T1 construct: gene CA9; recombinant, obtained in-house

hCA XII [2] = molecular target: T2, hCA XII (Homo sapiens, UniProt O43570); assay: stopped-flow CO2 hydrase assay; format: biochemical; details: CO2 […], […] Hepes pH […] Na2SO4, […] min preincubation at room temperature
T2 construct: gene CA12; recombinant, obtained in-house

hCA IX [3] = molecular target: T1, hCA IX; assay: stopped-flow CO2 hydrase assay; format: biochemical; details: CO2 […], […] Hepes pH […] Na2SO4, […] min preincubation at room temperature
hCA IX [4] = molecular target: T1, hCA IX; assay: biochemical; parameters: Stopped-flow CO2 hydrase assay, phenol red absorbance at 557 nm, KI by Cheng-Prusoff
Procedure: (§1) An Applied Photophysics stopped-flow instrument has been used for assaying the CA catalysed CO2 hydration activity. Phenol red (at a concentration of 0.2 mM) has been used as indicator, working at the absorbance maximum of 557 nm, with 20 mM Hepes (pH 7.5) as buffer, and 20 mM Na2SO4 (for maintaining constant the ionic strength), following the initial rates of the CA-catalyzed CO2 hydration reaction for a period of 10–100 s. The CO2 concentrations ranged from 1.7 to 17 mM for the determination of the kinetic parameters and inhibition constants. For each inhibitor at least six traces of the initial 5–10% of the reaction have been used for determining the initial velocity. The uncatalyzed rates were determined in the same manner and subtracted from the total observed rates. Stock solutions of inhibitor (0.1 mM) were prepared in distilled-deionized water and dilutions up to 0.01 nM were done thereafter with the assay buffer. Inhibitor and enzyme solutions were preincubated together for 15 min at room temperature prior to assay, to allow for the formation of the E-I complex. The inhibition constants were obtained by non-linear least-squares methods using PRISM 3 and the Cheng–Prusoff equation, as reported earlier, and represent the mean from at least three different determinations. All CA isoforms were recombinant ones obtained in-house as reported earlier. […] DCH/CO-RM derivatives 1–10 were therefore investigated as inhibitors of the hCAs I, II, IX, and XII by means of the Stopped-Flow CO2 hydrase assay.

hCA XII [5] = molecular target: T2, hCA XII; assay: biochemical; parameters: Stopped-flow CO2 hydrase assay, phenol red absorbance at 557 nm, KI by Cheng-Prusoff
Procedure: as §1

hCA I = molecular target: T3, hCA I (Homo sapiens, UniProt P00915); assay: biochemical; parameters: Stopped-flow CO2 hydrase assay, phenol red absorbance at 557 nm, KI by Cheng-Prusoff
T3 construct: gene CA1; recombinant, obtained in-house
Procedure: as §1

hCA II = molecular target: T4, hCA II (Homo sapiens, UniProt P00918); assay: biochemical; parameters: Stopped-flow CO2 hydrase assay, phenol red absorbance at 557 nm, KI by Cheng-Prusoff
T4 construct: gene CA2; recombinant, obtained in-house
Procedure: as §1

hCA XII [6] = molecular target: T2, hCA XII; assay: stopped-flow CO2 hydrase assay; format: biochemical

T3 sequence (P00915 2-261): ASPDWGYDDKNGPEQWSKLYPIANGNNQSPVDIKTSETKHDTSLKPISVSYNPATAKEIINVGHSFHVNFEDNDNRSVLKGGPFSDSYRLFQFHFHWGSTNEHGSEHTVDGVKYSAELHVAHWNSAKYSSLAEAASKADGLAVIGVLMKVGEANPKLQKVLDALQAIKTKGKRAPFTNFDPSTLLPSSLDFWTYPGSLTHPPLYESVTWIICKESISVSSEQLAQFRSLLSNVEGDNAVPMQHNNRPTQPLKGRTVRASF
T2 sequence (O43570 30-289 limits assumed): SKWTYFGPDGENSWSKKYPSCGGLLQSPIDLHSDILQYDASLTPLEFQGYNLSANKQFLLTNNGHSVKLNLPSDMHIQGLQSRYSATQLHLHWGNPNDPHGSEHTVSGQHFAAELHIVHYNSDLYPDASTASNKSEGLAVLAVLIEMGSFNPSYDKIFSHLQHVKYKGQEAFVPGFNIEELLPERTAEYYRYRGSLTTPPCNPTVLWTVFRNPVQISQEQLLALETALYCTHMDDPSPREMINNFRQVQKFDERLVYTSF

| Ki (hCA IX [4]) | Ki (hCA XII [5]) | Ki (hCA I) | Ki (hCA II) | Structure (SMILES) | further results |
| --- | --- | --- | --- | --- | --- |
|  | 4920 nM | > 100000 nM | > 100000 nM | C#CCOc1cccc2cc(C(=O)c3ccccc3)c(=O)oc12 [f, 3-benzoyl-8-(prop-2-yn-1-yloxy)-2H-chromen-2-one] | Ki (hCA IX [1]): 0.695 µM; KI (hCA XII [2]): maintained unchanged their inhibitory activity against hCA XII |
|  |  | > 100000 nM | > 100000 nM | C#CCOc1cccc2cc(C(=O)OCC)c(=O)oc12 [h, ethyl 2-oxo-8-(prop-2-yn-1-yloxy)-2H-chromene-3-carboxylate] |  |
| > 100000 nM | > 100000 nM | > 100000 nM | > 100000 nM | C#CCOc1ccc(-c2nc3ccccc3n2-c2ccccc2)cc1 [l] |  |

The remaining lines, values behind:

| Structure (SMILES) | Ki (hCA IX [4]) | Ki (hCA XII [5]) | Ki (hCA I) | Ki (hCA II) | further results |
| --- | --- | --- | --- | --- | --- |
| C#CCOC1=NS(=O)(=O)OC(C)=C1 [a] |  |  |  |  | Ki (hCA IX [1]; CO2 […], […] Hepes pH […] Na2SO4, […] min preincubation at room temperature): 0.252 µM |
| C#CCN1C(=O)C=C(C)OS1(=O)=O [b, 6-methyl-3-(prop-2-yn-1-yl)-1,2,3-oxathiazin-4(3H)-one 2,2-dioxide] | 358 nM | 378 nM |  |  | KI (hCA XII [2]): Compounds a and b showed better inhibitory activity against isoform XII; KI (hCA IX [3]): compound b exhibited a loss of inhibitory activity after the CO releasing group linkage |
| C#CCOc1ccc2oc(=O)c(C(=O)c3ccccc3)cc2c1 [g, 3-benzoyl-6-(prop-2-yn-1-yloxy)-2H-chromen-2-one] |  |  |  |  | Ki (hCA IX [1]): 0.315 µM; Ki (hCA XII [6]): 0.353 µM |
| C#CCOc1ccc(C2=NN(C(C)=O)C(c3ccccc3OC)C2)cc1 (stereo not shown) [i] | > 100000 nM | > 100000 nM | > 100000 nM | > 100000 nM |  |

— paper PMC7824903, “Dual Carbonic Anhydrase IX/XII Inhibitors and Carbon Monoxide Releasing Molecules Modulate LPS-Mediated Inflammation in Mouse Macrophages” (Antioxidants, 2021)
